Structures are written as SMILES. pEC50: −log10 of the molar value.

This test has as its system mutant HTT protein (mHTT). Nature of the test: Homogeneous Time Resolved Fluorescence (HTRF) assay for HTT lowering in GENEAe020-A cells. As to conditions: reduction of mHTT; Huntington patient human cells (GENEAe020-A cell line); 48 hours incubation; mean from three replicates. It counts as cell-based. As to the method:
The HTRF assay was adapted from Weiss et al. (Analytical Biochemistry Volume 395, Issue 1, 1 Dec. 2009, Pages 8-15 and Analytical Biochemistry Volume 410, 2011, Pages 304-306) to cells from GENEAe020-A cell line (https://hpscreg.eu/cell-line/GENEAe020-A).
Compounds were tested for the effect of mutant HTT levels in Huntington patient human cells (GENEAe020-A cell line) using Homogeneous Time Resolved Fluorescence (HTRF) directed towards mutant HTT protein (mHTT). The GENEAe020-A cell line was derived by Genea Biocells from human blastocysts of HD donors. After assessing viability, cells were plated into 384 well collagen coated plates in growth media. Once cells adhered, media was removed and test compounds dissolved in DMSO were diluted with buffer solution and added to the adherent cells. Controls included experiments with no cells, DMSO with no compound, and Hsp90 inhibitor control. Cells were incubated with compounds and controls for 48 hours. Then, the cells were lysed and transferred to an assay plate containing HTRF labeled monoclonal antibodies developed by Paul Patterson (Ko et al., Brain Research Bulletin, Volume 56, Numbers 3 and 4, 2001, Pages 319-329) which recognize specific areas of the HTT protein. The terbium labeled “donor” antibody (2B7) binds to the N-terminus of the HTT protein and the Alexa488 labeled “acceptor” antibody (MW1) is specific for the polyglutamine region of the protein. Binding of the acceptor labeled antibody is more efficient for the extended polyglutamine repeats of mutant HTT protein which translates into a signal boost which enables the specific measurement of mutant HTT protein level. The HTRF donor and acceptor detection reagents were incubated with the cell lysate and the ratio between the signals of the two fluorophores is indicative of the relative quantities of mHTT.
In general terms: Time-resolved FRET reads energy transfer from a long-lived donor to a nearby acceptor.
As usually defined, the pEC50 is the negative decadic logarithm of the EC50, by convention in mol/L. Higher therefore signals a small EC50. As for `Cc1cn2nc(-c3nc4sc([C@H]5CCNC[C@H]5F)cc4c(=O)[nH]3)cc(C)c2n1` (racemic) [Example 2, 2-(2,8-Dimethylimidazo[1,2-b]pyridazin-6-yl)-6-[(3SR,4SR)-3-fluoro-4-piperidyl]-3H-thieno[2,3-d]pyrimidin-4-one], the negative logarithm of the EC50 (pEC50) was 6.69.

In turn, `Cc1cn2nc(-c3nc4sc(C5CCNCC5)cc4c(=O)[nH]3)cc(C)c2n1` [Example 1, 2-(2,8-Dimethylimidazo[1,2-b]pyridazin-6-yl)-6-(4-piperidyl)-3H-thieno[2,3-d]pyrimidin-4-one hydrogen chloride] had a pEC50 of 7.30.

Regarding `Cc1cn2nc(-c3nc4sc(C5CCNCC5(F)F)cc4c(=O)[nH]3)cc(C)c2n1` (stereo not drawn) [Example 3, 6-(3,3-Difluoro-4-piperidyl)-2-(2,8-dimethylimidazo[1,2-b]pyridazin-6-yl)-3H-thieno[2,3-d]pyrimidin-4-one], the negative logarithm of the EC50 (pEC50) was 5.64.

`Cc1cn2nc(-c3nc4sc(OC5CNC5)cc4c(=O)[nH]3)cc(C)c2n1` [Example 4, 6-(Azetidin-3-yloxy)-2-(2,8-dimethylimidazo[1,2-b]pyridazin-6-yl)-3H-thieno[2,3-d]pyrimidin-4-one] gave a pEC50 of 5.33.

`Cc1cn2nc(-c3nc4sc(OC5CCNCC5)cc4c(=O)[nH]3)cc(C)c2n1` [Example 5, 2-(2,8-Dimethylimidazo[1,2-b]pyridazin-6-yl)-6-(4-piperidyloxy)-3H-thieno[2,3-d]pyrimidin-4-one] gave a negative-log EC50 (pEC50) of 6.55.

As for `Cc1cn2nc(-c3nc4sc(C5CCNC6(CC6)C5)cc4c(=O)[nH]3)cc(C)c2n1` (stereo not drawn) [Example 6, 6-(4-Azaspiro[2.5]octan-7-yl)-2-(2,8-dimethylimidazo[1,2-b]pyridazin-6-yl)-3H-thieno[2,3-d]pyrimidin-4-one], the pEC50 is 6.69.
